Measurements as given in ChEMBL document CHEMBL4425171, “Cholinesterase inhibitory activity of chlorophenoxy derivatives-Histamine H3 receptor ligands” (Bioorg Med Chem Lett, 2016).
Activity calls are given as the source filed them. The rule behind the calls is not given here.

What was measured:
[1] = biological target: Acetylcholinesterase (Electrophorus electricus, UniProt O42275); assay: Inhibition of electric eel AChE using acetylthiocholine iodide as substrate preincubated for 5 mins followed by substrate addition measured after 5 mins by Ellmans method
[2] = biological target: T1, Cholinesterase (Equus caballus, UniProt P81908)
Description: Inhibition of equine serum BChE using butyrylthiocholine chloride as substrate preincubated for 5 mins followed by substrate addition measured after 5 mins by Ellmans method

[3] = biological target: Cholinesterase (Equus caballus) (UniProt P81908); assay: Inhibition of equine serum BChE using butyrylthiocholine chloride as substrate at 10 uM preincubated for 5 mins followed by substrate addition measured after 5 mins by Ellmans method
[4] = biological target: Histamine H3 receptor (Homo sapiens, UniProt Q9Y5N1); assay: biochemical
Description: Displacement of [3H]Nalpha-methylhistamine from human full length recombinant histamine H3 receptor expressed in HEK293 cell membranes after 90 mins by liquid scintillation counting method

[5] = biological target: Acetylcholinesterase (Electrophorus electricus) (UniProt O42275); assay: Inhibition of electric eel AChE using acetylthiocholine iodide as substrate at 10 uM preincubated for 5 mins followed by substrate addition measured after 5 mins by Ellmans method
[6] = biological target: Acetylcholinesterase (Electrophorus electricus) (UniProt O42275); assay: Mixed-type inhibition of electric eel AChE using acetylthiocholine iodide as substrate at 2 to 10 uM by Lineweaver-Burk double reciprocal plot analysis
[7] = biological target: Cholinesterase (Equus caballus) (UniProt P81908); assay: Non-competitive inhibition of equine serum BChE using butyrylthiocholine chloride as substrate at 2 to 5 uM by Lineweaver-Burk double reciprocal plot analysis
[8] = biological target: Acetylcholinesterase (Electrophorus electricus) (UniProt O42275); assay: Mixed-type inhibition of electric eel AChE using acetylthiocholine iodide as substrate at 5 to 20 uM by Lineweaver-Burk double reciprocal plot analysis
[9] = biological target: T1, Cholinesterase; assay: Inhibition of equine serum BChE using butyrylthiocholine chloride as substrate preincubated for 4.5 mins followed by substrate addition measured after 2.5 mins by Ellmans method

Sequence of Acetylcholinesterase (Electrophorus electricus) (O42275 24-633 limits assumed): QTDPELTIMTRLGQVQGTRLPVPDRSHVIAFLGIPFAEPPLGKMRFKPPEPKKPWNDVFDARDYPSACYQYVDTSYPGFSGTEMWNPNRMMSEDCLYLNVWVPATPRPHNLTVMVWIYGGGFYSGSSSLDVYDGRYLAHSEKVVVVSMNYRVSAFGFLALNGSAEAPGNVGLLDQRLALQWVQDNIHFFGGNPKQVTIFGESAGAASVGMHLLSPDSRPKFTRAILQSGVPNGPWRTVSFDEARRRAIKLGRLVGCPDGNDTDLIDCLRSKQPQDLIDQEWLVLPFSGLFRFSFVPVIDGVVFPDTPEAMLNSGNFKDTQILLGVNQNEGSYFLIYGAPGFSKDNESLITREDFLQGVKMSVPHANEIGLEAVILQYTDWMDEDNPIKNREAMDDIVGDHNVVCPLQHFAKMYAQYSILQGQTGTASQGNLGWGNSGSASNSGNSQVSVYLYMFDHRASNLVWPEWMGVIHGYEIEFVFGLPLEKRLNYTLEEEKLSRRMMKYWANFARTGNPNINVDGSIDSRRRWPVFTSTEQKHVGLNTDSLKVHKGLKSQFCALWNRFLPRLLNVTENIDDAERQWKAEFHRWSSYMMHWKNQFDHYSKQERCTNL
Sequence of Acetylcholinesterase (O42275 whole entry): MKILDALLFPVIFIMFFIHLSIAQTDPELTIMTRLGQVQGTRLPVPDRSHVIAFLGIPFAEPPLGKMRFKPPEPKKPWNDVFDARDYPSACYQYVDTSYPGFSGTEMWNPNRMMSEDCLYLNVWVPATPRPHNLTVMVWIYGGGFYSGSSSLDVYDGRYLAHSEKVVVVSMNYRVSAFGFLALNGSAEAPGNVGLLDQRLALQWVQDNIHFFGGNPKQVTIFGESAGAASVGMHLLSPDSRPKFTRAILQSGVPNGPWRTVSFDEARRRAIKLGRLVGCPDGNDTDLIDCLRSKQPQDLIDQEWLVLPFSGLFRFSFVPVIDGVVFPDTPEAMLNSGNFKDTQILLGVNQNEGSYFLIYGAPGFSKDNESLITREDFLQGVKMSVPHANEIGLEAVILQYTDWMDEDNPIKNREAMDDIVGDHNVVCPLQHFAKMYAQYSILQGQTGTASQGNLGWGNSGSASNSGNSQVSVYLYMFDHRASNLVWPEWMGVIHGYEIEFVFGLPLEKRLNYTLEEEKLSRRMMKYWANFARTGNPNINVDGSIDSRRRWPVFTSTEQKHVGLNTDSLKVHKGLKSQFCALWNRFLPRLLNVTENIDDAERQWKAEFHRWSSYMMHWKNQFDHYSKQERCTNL
T1 sequence (P81908 whole entry): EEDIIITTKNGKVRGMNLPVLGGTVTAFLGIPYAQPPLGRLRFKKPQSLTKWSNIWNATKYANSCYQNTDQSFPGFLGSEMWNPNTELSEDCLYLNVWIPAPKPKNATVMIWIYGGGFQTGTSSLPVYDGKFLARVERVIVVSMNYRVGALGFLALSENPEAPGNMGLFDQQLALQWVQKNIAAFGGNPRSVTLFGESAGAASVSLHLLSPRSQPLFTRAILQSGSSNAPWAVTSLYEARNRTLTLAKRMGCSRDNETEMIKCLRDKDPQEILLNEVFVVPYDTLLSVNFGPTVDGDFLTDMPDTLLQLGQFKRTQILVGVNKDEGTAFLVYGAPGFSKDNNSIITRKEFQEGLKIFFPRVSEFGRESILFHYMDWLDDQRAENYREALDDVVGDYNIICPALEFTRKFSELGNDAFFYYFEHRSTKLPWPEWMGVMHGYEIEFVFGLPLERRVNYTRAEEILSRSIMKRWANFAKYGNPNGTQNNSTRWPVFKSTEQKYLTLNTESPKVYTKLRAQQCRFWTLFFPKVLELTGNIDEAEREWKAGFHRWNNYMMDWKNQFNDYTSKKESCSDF
Sequence of Cholinesterase (Equus caballus) (P81908 whole entry): as above
Sequence of Histamine H3 receptor (Q9Y5N1 whole entry): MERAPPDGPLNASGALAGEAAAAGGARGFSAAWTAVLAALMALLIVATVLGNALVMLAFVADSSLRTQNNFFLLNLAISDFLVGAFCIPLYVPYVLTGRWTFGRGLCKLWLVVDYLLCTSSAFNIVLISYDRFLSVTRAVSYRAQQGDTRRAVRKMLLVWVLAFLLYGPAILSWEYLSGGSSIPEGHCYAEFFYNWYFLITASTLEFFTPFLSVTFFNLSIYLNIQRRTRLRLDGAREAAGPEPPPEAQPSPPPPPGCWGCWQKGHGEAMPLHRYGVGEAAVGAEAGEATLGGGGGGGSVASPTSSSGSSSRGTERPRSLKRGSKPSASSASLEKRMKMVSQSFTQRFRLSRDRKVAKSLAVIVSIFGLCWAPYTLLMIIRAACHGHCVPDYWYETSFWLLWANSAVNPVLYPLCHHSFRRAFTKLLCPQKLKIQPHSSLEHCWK

Clc1ccc(OCCCOCCCN2CCCCCC2)cc1
IC50 [1]: 7.91 µM
IC50 [2]: 4.97 µM

CC1CCN(CCCCCCCOc2cccc(Cl)c2)CC1
IC50 [1]: 4.9 µM
IC50 [2]: 1.66 µM

CC1CCN(CCCCCCOc2cccc(Cl)c2)CC1
IC50 [1]: 7.31 µM
IC50 [2]: 3.53 µM

Clc1cccc(OCCCCCCN2CCCCC2)c1
IC50 [1]: 18.6 µM
inhibition [3]: < 50%
IC50 [2]: > 10 µM

CC1CCCN(CCCCCCOc2ccc(Cl)cc2)C1 (stereo not given)
IC50 [1]: 4.8 µM
inhibition [3]: < 50%
IC50 [2]: > 10 µM

CC1CCCN(CCCCCCCOc2cccc(Cl)c2)C1 (stereo not given)
IC50 [1]: 3.8 µM
IC50 [2]: 5.15 µM
Ki [4]: 0.446 µM

Clc1cccc(OCCCCCCCN2CCCCCC2)c1
IC50 [1]: 2.42 µM
IC50 [2]: 0.9 µM

CC1CCN(CCCCCCCOc2ccc(Cl)cc2)CC1
IC50 [1]: 2.74 µM
IC50 [2]: 2.92 µM

Clc1ccc(OCCCCCCCN2CCCCC2)cc1
IC50 [1]: 3.94 µM
inhibition [3]: < 50%
IC50 [2]: > 10 µM

Clc1ccc(OCCCCCCN2CCCCC2)cc1
IC50 [1]: > 10 µM
inhibition [5]: < 50%
inhibition [3]: < 50%
IC50 [2]: > 10 µM

Clc1cccc(OCCCCCCN2CCCCCC2)c1
IC50 [1]: 5.4 µM
IC50 [2]: 2.43 µM

Clc1ccc(OCCCCCN2CCCCCC2)cc1
IC50 [1]: > 10 µM
inhibition [5]: < 50%
IC50 [2]: 3.45 µM

CC1CCCN(CCCCCOc2ccc(Cl)cc2)C1 (stereo not given)
IC50 [1]: 23.6 µM
inhibition [3]: < 50%
IC50 [2]: > 10 µM

CC1CCN(CCCCCCOc2ccc(Cl)cc2)CC1
IC50 [1]: 8.11 µM
IC50 [2]: 5.43 µM

Clc1ccc(OCCCCCCCN2CCCCCC2)cc1
IC50 [1]: 1.93 µM
inhibition [6]: Active
inhibition [7]: Active
IC50 [2]: 1.64 µM

CC1CCCN(CCCCCCOc2cccc(Cl)c2)C1 (stereo not given)
IC50 [1]: 6.22 µM
inhibition [3]: < 50%
IC50 [2]: > 10 µM

Clc1cccc(OCCCCCCCN2CCCCC2)c1
IC50 [1]: 5.33 µM
IC50 [2]: 4.75 µM

CC1CCCN(CCCCCCCOc2ccc(Cl)cc2)C1 (stereo not given)
IC50 [1]: 4.51 µM
inhibition [3]: < 50%
inhibition [8]: Active
IC50 [2]: > 10 µM

c1cc2c(cc1OCCCN1CCCCC1)CN1CCCC1=N2
IC50 [9]: 8.2 µM

CC1CCN(CCCCCOc2ccc(Cl)cc2)CC1
IC50 [1]: > 10 µM
inhibition [5]: < 50%
inhibition [3]: < 50%
IC50 [2]: > 10 µM

Clc1ccc(OCCCCCCN2CCCCCC2)cc1
IC50 [1]: 3.88 µM
IC50 [2]: 3.74 µM

Clc1ccc(OCCCCCN2CCCCC2)cc1
IC50 [1]: > 10 µM
inhibition [5]: < 50%
inhibition [3]: < 50%
IC50 [2]: > 10 µM
